Experiments:
HEI-OC1 cells = assay: TACS MTT cell proliferation / metabolic activity assay in HEI-OC1; type: cell-based, mouse; settings: for Metabolic activity throughout all concentrations: 0.1–100 μM, throughout all concentrations and cell lines; for Proliferative effect vs Qx-70 and untreated cells: HEI-OC1, TACS MTT
Protocol: (§1) HEI-OC1 cells derived from the mouse OC (kindly provided by Dr. F. Kalinec) were cultured under permissive conditions (33 °C, 10% CO2) as described in [22]. Additionally, we assessed the activity of Qx-derived compounds in the mouse neuroblastoma cell line, Neuro-2A, and the human fibrosarcoma HT-1080 (ATCC, Manassas, VA, USA) following the standard cell culture guidelines provided by the vendor.
(§2) In vitro cell proliferation effects of all ten initial compounds (Figure 1A,B) were tested on HEI-OC1, Neuro-2A and HT-1080 cells by TACS® 3-(4,5-dimethylthiazol-2-yl)-2,5-diphenyltetrazolium bromide (MTT) Cell Proliferation Assay (R&D Systems, Minneapolis, MN, USA, 4890-025-K), following the manufacturer’s protocol. Absorbance was measured with SpectraMax® M Series Multi-Mode Microplate Reader with Soft Max Pro 7.2 GxP Software (Molecular Devices, Sunnyvale, CA, USA), and the average OD in control cells was taken as 100% of viability. Upon selecting the most viable compounds (Qx-294 and Qx-301), we proceeded with in vivo experiments. For zebrafish treatment, animals were incubated for varied times with different concentrations (50, 100, 150, 200, 250, and 300 μg/mL) of Qx-294 or Qx-301 diluted in swimming (E3) media or administered via IP injections. Mice treatment followed the same procedures as described in [18]. Following treatment, animals or tissue samples were incubated in Click-it EdU or Click-it Plus TUNEL kits (Thermo Scientific, Waltham, MA, USA), following the manufacturer’s instructions to label proliferating and apoptotic cells, respectively.

zebrafish neuromast SCs = assay: EdU proliferation assay in zebrafish neuromasts; type: in vivo, zebrafish (Danio rerio); settings: p < 0.05; for Number of proliferating (EdU-positive) cells per neuromast vs control: zebrafish, 50–300 μg/mL, 24 h post-treatment
Protocol: as §2
Cell numbers in mouse cochleae or fish, as well as fish neuromast morphologies, were evaluated in 25 zebrafish per drug and treatment group across three experimental runs. […] Images were analyzed at 200X magnification, obtained from different neuromasts and cochlear regions (apex, middle, and base). HCs were quantified in the mouse OC by counting M7a-positive cells, with HC identity further confirmed by phalloidin-labeled stereocilia. Apoptosis and cell proliferation events, on the other hand, were quantified by counting TUNEL- and EdU-positive cells, respectively. […] The number of HCs (IHCs and OHCs) is expressed as units per 200 μm. […] IHCs and OHCs were counted on reconstructed confocal stacks using NIH ImageJ v1.8.0 software. […] Reliability statistics were calculated in SPSS v22.0. […] Fluorescence incorporation following treatment with FM1-43 was quantified according to [19] using ImageJ. […]

HT-1080 = assay: TACS MTT cell proliferation / metabolic activity assay in HT-1080; type: cell-based, human; settings: HT-1080, 0.1 to 100 μM
Protocol: as §1, §2

[1] = Cytotoxicity, MTT colorimetric microculture assay; type: cell-based; settings: mouse, HEI-OC1 cells (auditory cell line), NCI criterion of cytotoxicity IC50 < 20 μg/mL
Protocol: The cytotoxicity of Qx-294 and Qx-301 compounds was assessed in the mouse auditory HEI-OC1 cell line using the (MTT) colorimetric microculture assay method as previously described. HEI-OC1 cells were cultured in DMEM (Corning, NY, USA, 10-013-CVC) supplemented with 10% fetal bovine serum (FBS) (Pansera) and 50 μg/mL ampicillin for 12 h. For cytotoxic assessment, increasing concentrations of Qx-294 and Qx-301 were added to a HEI-OC1 cell suspension (5 × 10^4 cells/well). Cell growth was determined 72 h later by adding 50 µL of MTT (2.5 mg/mL). This was reduced by mitochondrial dehydrogenase of viable cells in an insoluble blue formazan product during the 4 h contact period at 37 °C. After the supernatant was removed, the formazan crystals were solubilized by adding DMSO (100 µL). These plates were read at 570 nm with SpectraMax® M Series Multi-Mode Microplate Reader with Soft Max Pro 7.2 GxP Software (Molecular Devices, Sunnyvale, CA, USA). At each dose level of the compounds tested, as well as the untreated (vehicle-only) controls, absorbance values were recorded and compared between different treatment and time points to assess cell growth and viability.

[2] = tested on: mechanotransduction channel activity of neuromast HCs; assay: FM1-43 uptake in zebrafish neuromasts; type: in vivo, zebrafish (Danio rerio); settings: 300 μM, 7 h, with or without 1 h recovery
Protocol: The styryl pyridinium dye FM1-43 provides an optical measure of mechanotransduction channel function and, therefore, was used as a proxy for the viability of the neuromast cells treated with QX-294 or QX-301, as well as indirect information on the functional capability of newly formed HCs. FM1-43FX (Thermo Scientific, Waltham, MA, USA) uptake experiments in zebrafish were performed as previously described. Zebrafish were incubated with E3 alone (control) or in the presence of Qx-294 or Qx-301, both at 300 μM, for 7 h and then immediately exposed to 3 μM FM1-43FX for 40 s. Alternatively, animals were transferred to a fresh E3 solution for 1 h and then exposed to the dye. For mouse treatment, 24, 48, and 72 h after animals were injected with […] Qx-294 or Qx-301, their cochleae were dissected, transiently exposed to FM1-43 FX dye (1 mg/mL) for 45 s, and then fixed in 4% PFA. All animals were P28 at completion of the treatment. Fluorescence incorporated was quantified according to [19] using ImageJ (ImageJ2 1.54r).

| SMILES | Metabolic activity throughout all concentrations (HEI-OC1 cells) | Proliferative effect vs Qx-70 and untreated cells (HEI-OC1 cells) | Number of EdU-positive SCs compared between the two compounds (zebrafish neuromast SCs; zebrafish neuromasts, Two-Way ANOVA with Bonferroni correction) | Number of proliferating (EdU-positive) cells per neuromast vs control (zebrafish neuromast SCs) | Proliferative state across all tested concentrations (HT-1080) | IC50 at 72 h [1] [µg/mL] | FM1-43 fluorescence intensity in neuromasts vs control [2] |
| --- | --- | --- | --- | --- | --- | --- | --- |
| c1ccc2nc(N3CCCC3)cnc2c1 [Qx-301, 2-(pyrrolidine)-quinoxaline] | elevated yet stable metabolic activity | significant and reproducible proliferative effects greater than those of Qx-70 and the untreated cells | significantly higher for Qx-301- than for Qx-294-treated neuromasts | significantly higher number of proliferating cells than the control groups | modest yet active proliferative state | > 20 | no significant differences |
| c1ccc2nc(N3CCOCC3)cnc2c1 [Qx-294, 2-(morpholine)-quinoxaline] | elevated yet stable metabolic activity | significant and reproducible proliferative effects greater than those of Qx-70 and the untreated cells | – | significantly higher number of proliferating cells than the control groups | modest yet active proliferative state | > 20 | no significant differences |

From article PMC12731105, “Design and Synthesis of New Quinoxaline Analogs to Regenerate Sensory Auditory Hair Cells” (Cells, 2025)
